Laboratory results published in patent US20140227311A1, “Method for Removing Immunosuppressive Properties of HIV Envelope Glycoproteins” (priority 2011, published 2014).
Ends that are not written are not given here.

Tested on: CTLL-2 cells
Assay type: cell-based
Settings: dimerized peptides (disulfide); 24 h; wt effect at concentrations of 75 or 100 uM; FIG. 1

**Q.** Which “inhibition of the proliferation of CTLL2 cells” value does the source give for “LQARILAVERYLKDQQLLGIWGCGGEKEKEK (also: dimerized) [wt ISD, dimerized wild-type ISD peptide with GGEKEKEK tail]” here?
**A.** The value was “inhibits the proliferation of the CTLL2 cells at concentrations of 75 or 100 uM”.
